Measured values: patent US20230220331A1, “TEMPORARY TREATMENT MEDIUM, TREATMENT KIT, EMBRYOGENESIS ARREST INHIBITOR, EMBRYOGENESIS ARREST INHIBITORY METHOD, DEVELOPMENTAL ENGINEERING PRODUCT PREPARATION METHOD, TRANSPLANTATION METHOD, THERAPEUTIC METHOD, AND DEVELOPMENTAL ENGINEERING PRODUCT” (priority 2020, published 2023)

Legend:
[1] = system: early embryos of the inbred mouse B6J strain; test: Recovery of inbred mouse early embryos frozen and thawed multiple times (Treatment Example 15); assay type: cell-based; settings: frozen TWICE
Source text: Then, in the same manner as in Treatment Example 9 according to Example 1, it was investigated whether or not the early embryos of the inbred mouse B6J strain, not the normal mice, could recover after frozen and thawed at multiple times.

[2] = system: unfrozen pronuclear stage embryo (1 cell) of the inbred rat F344; test: Genome-edited individuals by unfrozen 1-cell TAKE of F344 (Treatment Example 16); assay type: cell-based; settings: F344 unfrozen 1 cell; for NUMBER OF NEWBORNS: 2× gRNA, 14 pulses, 20% reduction rate; for KO rate (Large deletion) (%): KO individuals / newborns analyzed
Source text: Next, in the same manner as in Treatment Example 1 according to Example 1, a knock-out by the electroporation method was also produced in an unfrozen pronuclear stage embryo (1 cell) of the inbred rat F344. The conditions at this time were that the gRNA concentration was twice the specified amount, the pulse was 14 times, and the reduction rate was 20%.

[3] = system: NOD-scid Bbox1, IL2RG double knock-out mice; test: Passage efficiency of mice prepared by using Y-27632 (Treatment Example 20); assay type: in vivo, mouse
Source text: The double knock-out mice of IL2RG gene and the Bbox1 gene by using the NOD-scid mice in the above-mentioned treatment example 14 were mated with each other, and it was examined whether or not the newborn mouse was affected by Y-27632.

[4] = system: pronuclear stage embryos of inbred rats F344; test: Generation of Flox inbred rats (individuals) by one-step method (Treatment Example 12); assay type: cell-based, rat; settings: F344, floxed p53 1STEP, high concentration, many pulses
Description: The pronuclear stage embryos of inbred rats similar to those of Treatment Example 6 according to Example 1 were knocked in by an electroporation method (1STEP method) by using a high concentration ssODN, and further individual preparations were performed. As in the above-mentioned treatment example 6, insertion of the LoxP that was not knocked in at the normal ssODN concentration and the number of transfer pulses was performed with the same temporary treatment as in the above-mentioned Example 1. Specifically, before and after electroporation, 1 hour of the temporary treatment, 24 hours of culture in the normal medium (waiting period), and 1 hour of the temporary treatment were performed. This made it possible to double the concentration of ssODN and the number of electroporations and to knocked in. Further, when the concentration of Cas9 was increased 5 times, Flox inbred rats were obtained by one electroporation.

[5] = system: frozen embryos of C57BL/6J; test: Recovery of re-frozen and re-thawed blastocysts, cytochalasin B vs Y-27632 (Treatment Example 10); assay type: cell-based, mouse; settings: 10 μM in mWM; 19 embryos
Description: In this treatment example, as in the above-mentioned treatment example 9, the normal medium (hereinafter, referred to as “Y− medium” as in the treatment example 9), the temporary treatment medium to which Y-27632 is added (hereinafter, referred to as “Y+ medium” as in the treatment example 9), and a CB-added medium (hereinafter, referred to as “CB+ medium”) were used. The concentrations of CB in the CB+ medium were 5 μM and 10 μM are prepared. As the manipulation, the recovery rates when frozen embryos were thawed and developed, then re-frozen in blastocysts and re-thawed were compared.
For the treatment, 107 frozen embryos of C57BL/6J (provided from CLEA Japan, Inc.) at the 2-cell stage were used. Firstly, the frozen embryos at the 2-cell stage were thawed and blastocysts were developed as they were in a normal medium.
Then, the blastocysts were then transferred to each of the above media and placed for 30 minutes. Then, the embryos were transferred to Y− medium again and placed for 30 minutes.
Then, each embryo was frozen.
Then, the embryos were then thawed and placed in M2 medium for 10 minutes.
Then, each embryo was evenly divided and placed on the medium for 1 hour.
The embryos were observed by returning to the Y− medium again. This observation was performed immediately after thawing, 3 hours later, and 24 hours later.

[6] = system: thawed 2-cell stage embryos of heterologous inbred SPR2 mouse; test: Individuals by embryo transfer after freeze-thaw and electroporation (Treatment Example 5); assay type: cell-based, Mus spretus
Description: 1. Up to 3 hours before TAKE, Y-27632-added mWM medium (Y-27632 final concentration 10 μM, an example of the “temporary treatment medium” of this example), Y-27632-free mWM medium (an example of “normal medium” of this example) were dropped into 35 mm Petri dishes by 5 drops, respectively, to prepare drops covered with paraffin oil.
2. Two-cell stage embryos were collected from the drops or thawed, placed in Y-27632-added mWM medium, and cultured for about 30 minutes to 1 hour (temporary treatment).
3. After that, TAKE was performed.
4. After TAKE, the embryos were placed in Y-27632-added mWM medium and cultured for about 30 minutes to 1 hour (temporary treatment). Then, the embryos were placed in Y-27632-free mWM medium and cultured at 37° C. under 5% CO2 and 5% O2 conditions until transplantation.
Next, the effect of the temporary treatment medium of this example on the heterologous inbred SPR2 mouse, which cannot obtain the individual by embryo transfer after freeze-thaw and electroporation, was measured.
In the heterologous inbred SPR2 mouse, the thawed 2-cell stage embryos that were cultured in the temporary treatment medium of this example for the specific period before and after electroporation were used, […], and 7 individuals were able to be obtained. […]

[7] = NOG-Bbox1, generation F1, 3 pregnancies
[8] = NOG-Bbox1, generation F2, 8 pregnancies

- ave. litter size ([3]; NOG-Bbox1, generation F1): (7.7/preg.)
- Total pups [3, 7]: 23
- female pups [3, 7]: 13
- male pups [3, 7]: 10
- ave. litter size ([3]; NOG-Bbox1, generation F2): (6.8/preg.)
- Total pups [3, 8]: 54
- female pups [3, 8]: 25
- male pups [3, 8]: 29
SMILES: C[C@@H](N)[C@H]1CC[C@H](C(=O)Nc2ccncc2)CC1 [Y-27632, trans-4-[(1R)-1-Aminoethyl]-N-4-pyrid inylcyclohexanecarboxamide]
- NUMBER OF RECOVERIES [1]: 24/26
- recoveries % [1]: 92%
- NUMBER OF NEWBORNS ([2]; 25 TAKE embryos, 1 recipient): 4
- Number of KO individuals (large deletion) ([2]; 25 TAKE embryos, 1 recipient, 4 newborns analyzed): 0
- KO rate (Large deletion) (%) ([2]; 25 TAKE embryos): (0%)
- NUMBER OF NEWBORNS ([2]; 75 TAKE embryos, 3 recipients): 16
- Number of KO individuals (large deletion) ([2]; 75 TAKE embryos, 3 recipients, 13 newborns analyzed): 7
- KO rate (Large deletion) (%) ([2]; 75 TAKE embryos): (53.8%)
- effect on mouse passage and phenotype ([3]; offspring of mice produced with Y-27632 treated embryos): did not affect mouse passage and phenotype
- NUMBER OF FLOX INDIVIDUALS / FLOX (2 SITES) ([4]; 92 transplanted embryos): 1/9
- Flox individuals % ([4]; listed as +Y): 11%
- Flox individuals % ([4]; listed as Y): 11.1%
- RECOVERY RATE about 3 hours later [5]: 94%
- RECOVERY RATE about 24 hours later [5]: 89%
- RECOVERY RATE immediately after thawing [5]: 36%
- number of embryos ABOUT 3 HOURS LATER [5]: 18
- number of embryos ABOUT 24 HOURS LATER [5]: 17
- number of embryos IMMEDIATELY AFTER THAWING [5]: 7
- individuals obtained ([6]; SPR2 thawed 2-cell embryos, treated before and after electroporation, 17 2-cell embryos transplanted into the oviduct): 7
- individuals obtained ([6]; SPR2 thawed, electroporated, 16 blastocysts transplanted into the uterus 3.5 days after plug): 5
